The values that follow are results of earlier work, collected in patent publication US20010046961A1, “Method for the treatment of solid tumors by albumin microparticles incorporating paclitaxel” (ACS DOBFAR S.p.A., priority 2000, published 2001).

This data set deals with head and neck cancer. Particulars: traditional treatment with Paclitaxel, for example head and neck cancer.

With `CC(=O)O[C@H]1C(=O)[C@@]2(C)[C@H]([C@H](OC(=O)c3ccccc3)[C@]3(O)C[C@H](OC(=O)[C@H](O)[C@@H](NC(=O)c4ccccc4)c4ccccc4)C(C)=C1C3(C)C)[C@]1(OC(C)=O)CO[C@@H]1C[C@@H]2O` [Paclitaxel], the treatment response percentage is 40%.
